System: Huh7 cells that stably maintain a subgenomic HCV replicon (S22.3 cell-line)
Assay: Cell based HCV RNA replication assay (S22.3 replicon cells, real-time RT-PCR)
Conditions: Hepatitis C virus, Huh-7, 72 hours
Experimental: Huh7 cells that stably maintain a subgenomic HCV replicon were established as previously described (Lohman et al., 1999. Science 285: 110-113) and designated as the S22.3 cell-line. S22.3 cells were maintained in Dulbecco's Modified […] Medium (DMEM) supplemented with 10% FBS and 0.5 mg/mL neomycin (Standard Medium). During the assay, DMEM medium supplemented with 10% FBS, containing 0.5% DMSO and lacking neomycin was used (Assay Medium). 16 hours prior to compound addition, S22.3 cells are trypsinized and diluted to 100 000 cells/ml in Standard Medium. 100μL (10 000 cells) are distributed into each well of a 96-well plate. The plate was then incubated at 37° C. with 5% CO2 until the next day.
10 μL of test compound (in 100% DMSO) was added to 2 ml of Assay Medium for a final DMSO concentration of 0.5% and the solution was sonicated for 15 min and filtered through a […] Millipore Filter Unit. 900 μl was transferred into row A of a Polypropylene Deep-Well Titer Plate. Rows B to H, contain 400 μL aliquots of Assay Medium (containing 0.5% DMSO), and were used to prepare serial dilutions (1/2) by transferring 400 μl from row to row (no compound was included in row H).
Cell culture medium was aspirated from the 96-well plate containing the S22.3 cells. 175 μL of assay medium with the appropriate dilution of test compound was transferred from each well of the compound plate to the corresponding well of the cell culture plate (row H was used as the “No inhibition control”). The cell culture plate was incubated at 37° C. with 5% CO2 for 72 hours.
Following the 72 hour incubation period, the total cellular RNA was extracted from the S22.3 cells of the 96-well plate using the RNeasy 96 kit (Qiagen®, RNeasy Handbook. 1999.). Briefly, assay medium was completely removed from cells and 100 μL of RLT buffer (Qiagen®) containing 143 mM β-mercaptoethanol was added to each well of the 96-well cell-culture plate. The microplate was gently shaken for 20 sec. 100 μL of 70% ethanol was then added to each microplate well, and mixed by pipetting. The lysate was removed and applied to the wells of a RNeasy 96 (Qiagen®) plate that was placed on top of a Qiagen® Square-Well Block. The RNeasy 96 plate was sealed with tape and the Square-Well Block with the RNeasy 96 plate was loaded into the holder and placed in a rotor bucket of a 4K15C centrifuge. The sample was centrifuged at 6000 rpm (˜5600×g) for 4 min at room temperature. The tape was removed from the plate and 0.8 ml of Buffer RW1 (Qiagen® RNeasy 96 kit) was added to each well of the RNeasy 96 plate. The RNeasy 96 plate was sealed with a new piece of tape and centrifuged at 6000 rpm for 4 min at room temperature. The RNeasy 96 plate was placed on top of another clean Square-Well Block, the tape removed and 0.8 ml of Buffer RPE (Qiagen® RNeasy 96 kit) was added to each well of the RNeasy 96 plate. The RNeasy 96 plate was sealed with a new piece of tape and centrifuged at 6000 rpm for 4 min at room temperature. The tape was removed and another 0.8 ml of Buffer RPE (Qiagen® RNeasy 96 kit) was added to each well of the RNeasy 96 plate. The RNeasy 96 plate was sealed with a new piece of tape and centrifuged at 6000 rpm for 10 min at room temperature. Tape was removed, the RNeasy 96 plate was placed on top of a rack containing 1.2-mL collection microtubes. The RNA was eluted by adding 50 μL of RNase-free water to each well, sealing plate with a new piece of tape and incubated for 1 min at room temperature. The plate was then centrifuged at 6000 rpm for 4 min at room temperature. The elution step was repeated with a second volume of 50 μl RNase-free water. The microtubes with total cellular RNA are stored at −70° C.
RNA was quantified on the STORM® system (Molecular Dynamics®) using the RiboGreen® RNA Quantification Kit (Molecular Probes®). Briefly, the RiboGreen reagent was diluted 200-fold in TE (10 mM Tris-HCl pH=7.5, 1 mM EDTA). Generally, 50 μL of reagent was diluted in 10 mL TE. […]

`CC(NC(=O)c1ccc2c(c1)nc(-c1ccoc1)n2C1CCCCC1)C(=O)Nc1ccc(/C=C/C(=O)O)cc1` (stereo not shown) [compound 1054] and `C[C@@H](NC(=O)c1ccc2c(c1)nc(-c1ccoc1)n2C1CCCCC1)C(=O)Nc1ccc(/C=C/C(=O)O)cc1` [compound 1057] fall in the same range of EC50: 5 to 50 µM for the first, 5 to 50 µM for the second.

`O=C(O)/C=C/c1ccc(NC(=O)C2(NC(=O)c3ccc4c(c3)nc(-c3ccccn3)n4C3CCCCC3)CCCC2)cc1` [compound 2005] and `C[C@@H]1CCCC[C@H]1n1c(-c2ccccn2)nc2cc(C(=O)NC3(C(=O)Nc4ccc(/C=C/C(=O)O)cc4)CCCC3)ccc21` (racemic) [compound 2044] cannot be ordered by EC50: no more than 5 µM for the first, no more than 5 µM for the second.

`CC1CCCC(C)C1n1c(-c2cccs2)nc2cc(C(=O)NC3(C(=O)Nc4ccc(C=CC(=O)O)cc4)CCCC3)ccc21` (mixture of isomers) [compound 2035] and `CC1CCCC(C)C1n1c(-c2ccccn2)nc2cc(C(=O)NC3(C(=O)Nc4ccc(C=CC(=O)O)cc4)CCCC3)ccc21` (mixture of isomers) [compound 2036] cannot be ordered by EC50: no more than 5 µM for the first, no more than 5 µM for the second.

`CC(NC(=O)c1ccc2c(c1)nc(-c1ccoc1)n2C1CCCCC1)C(=O)Nc1ccc(C(=O)O)cc1` (stereo not shown) [compound 1053] and `CC(NC(=O)c1ccc2c(c1)nc(-c1ccoc1)n2C1CCCCC1)C(=O)Nc1ccc(-c2ccc(C(=O)O)o2)cc1` (stereo not shown) [compound 1060] fall in the same range of EC50: 5 to 50 µM for the first, 5 to 50 µM for the second.

`Cc1cc(=O)oc2cc(NC(=O)[C@@H](C)NC(=O)c3ccc4c(c3)nc(-c3ccoc3)n4C3CCCCC3)ccc12` [compound 1026] and `Cc1oc(-c2cccc(NC(=O)[C@@H](C)NC(=O)c3ccc4c(c3)nc(-c3ccoc3)n4C3CCCCC3)c2)cc1C(=O)O` [compound 1074] cannot be ordered by EC50: no more than 5 µM for the first, no more than 5 µM for the second.

`O=C(O)/C=C/c1ccc(NC(=O)C2(NC(=O)c3ccc4c(c3)nc(-c3ccoc3)n4C3CCCCC3)CCC2)cc1` [compound 1094] and `O=C(O)/C=C/c1ccc(NC(=O)C2(NC(=O)c3ccc4c(c3)nc(-c3ccoc3)n4C3CCCC3)CCCC2)cc1` [compound 2013] cannot be ordered by EC50: no more than 5 µM for the first, 5 to 50 µM for the second.

`O=C(NC1(C(=O)Nc2ccc3nc(S)sc3c2)CCCC1)c1ccc2c(c1)nc(-c1ccoc1)n2C1CCCCC1` [compound 1078] and `Cc1c(C(=O)O)sc2ccc(NC(=O)C3(NC(=O)c4ccc5c(c4)nc(-c4ccoc4)n5C4CCCCC4)CCCC3)cc12` [compound 1099] cannot be ordered by EC50: no more than 5 µM for the first, no more than 5 µM for the second.

`Cn1c(C(=O)O)cc2cc(NC(=O)C3(NC(=O)c4ccc5c(c4)nc(-c4ccoc4)n5C4CCCCC4)CCCNC3)ccc21` (stereo not shown) [compound 1104] and `Cn1c(C(=O)O)cc2cc(NC(=O)C3(NC(=O)c4ccc5c(c4)nc(-c4ccoc4)n5C4CCCCC4)CCCC3)ccc21` [compound 1077] cannot be ordered by EC50: no more than 5 µM for the first, no more than 5 µM for the second.

`O=C(O)C=Cc1ccc(NC(=O)C2(NC(=O)c3ccc4c(c3)nc(-c3ccccn3)n4C3CC4CCC3C4)CCCC2)cc1` (mixture of isomers) [compound 2020] and `O=C(O)C=Cc1ccc(NC(=O)C2(NC(=O)c3ccc4c(c3)nc(-c3cccs3)n4C3CC4CCC3C4)CCCC2)cc1` (mixture of isomers) [compound 2019] cannot be ordered by EC50: no more than 5 µM for the first, no more than 5 µM for the second.

`O=C(O)/C=C/c1ccc(NC(=O)C2(NC(=O)c3ccc4c(c3)nc(-c3ccoc3)n4C3CCCCC3)CCNCC2)cc1` [compound 1100] and `O=C(O)/C=C/c1ccc(NC(=O)C2(NC(=O)c3ccc4c(c3)nc(-c3ccoc3)n4C3CCCCC3)CCCC2)cc1` [compound 1071] cannot be ordered by EC50: no more than 5 µM for the first, no more than 5 µM for the second.

`O=C(O)/C=C/c1ccc(NC(=O)C2(NC(=O)c3ccc4c(c3)nc(-c3ccccc3)n4C3CCCCC3)CCCC2)cc1` [compound 2006] and `O=C(O)/C=C/c1ccc(NC(=O)C2(NC(=O)c3ccc4c(c3)nc(-c3ccsc3)n4C3CCCCC3)CCCC2)cc1` [compound 2001] cannot be ordered by EC50: no more than 5 µM for the first, no more than 5 µM for the second.

`C/C(=C\c1ccc(NC(=O)C2(NC(=O)c3ccc4c(c3)nc(-c3ccoc3)n4C3CCCCC3)CCCC2)cc1)C(=O)O` [compound 1083] and `O=C(O)/C=C/c1ccc(NC(=O)C2(NC(=O)c3ccc4c(c3)nc(-c3ccoc3)n4C3CCCCC3)CCCCC2)cc1` [compound 1072] cannot be ordered by EC50: no more than 5 µM for the first, no more than 5 µM for the second.

`O=C(O)/C=C/c1ccc(NC(=O)CNC(=O)c2ccc3c(c2)nc(-c2ccoc2)n3C2CCCCC2)cc1` [compound 1079] and `CC[C@@H](NC(=O)c1ccc2c(c1)nc(-c1ccoc1)n2C1CCCCC1)C(=O)Nc1ccc(/C=C/C(=O)O)cc1` [compound 1075, (E)-3-[4-((R)-2-{[1-(1-Cyclohexyl-2-furan-3-yl-1H-benzoimidazol-5-yl)-methanoyl]-amino}-butanoylamino)-phenyl]-acrylic acid] fall in the same range of EC50: 5 to 50 µM for the first, 5 to 50 µM for the second.

`O=C(O)/C=C/c1ccc(NC(=O)C2(NC(=O)c3ccc4c(c3)nc(-c3cccs3)n4C3CCCCC3)CCCC2)cc1` [compound 2050] and `O=C(O)/C=C/c1ccc(NC(=O)C2(NC(=O)c3ccc4c(c3)nc(-c3ccc[nH]3)n4C3CCCCC3)CCCC2)cc1` [compound 2007] cannot be ordered by EC50: no more than 5 µM for the first, no more than 5 µM for the second.

`O=C(NC1(C(=O)Nc2ccc3[nH]c(C(=O)O)cc3c2)CCCC1)c1ccc2c(c1)nc(-c1ccoc1)n2C1CCCCC1` [compound 1098] and `Cc1cc(NC(=O)C2(NC(=O)c3ccc4c(c3)nc(-c3ccoc3)n4C3CCCCC3)CCCC2)ccc1/C=C/C(=O)O` [compound 1088] cannot be ordered by EC50: 5 to 50 µM for the first, no more than 5 µM for the second.

`CCN1CCC(NC(=O)c2ccc3c(c2)nc(-c2ccoc2)n3C2CCCCC2)(C(=O)Nc2ccc(-c3nc(C(N)=O)cs3)cc2)CC1` [compound 1109] and `CCN1CCC(NC(=O)c2ccc3c(c2)nc(-c2ccoc2)n3C2CCCCC2)(C(=O)Nc2ccc(-c3nc(C(=O)O)cs3)cc2)CC1` [compound 1108] cannot be ordered by EC50: no more than 5 µM for the first, no more than 5 µM for the second.

`C[C@@H](NC(=O)c1ccc2c(c1)nc(-c1ccc[nH]1)n2C1CCCCC1)C(=O)Nc1ccc(/C=C/C(=O)O)cc1` [compound 2004] and `CC(C)(NC(=O)c1ccc2c(c1)nc(-c1ccoc1)n2C1CCCCC1)C(=O)Nc1ccc(/C=C/C(=O)O)cc1` [compound 1093] cannot be ordered by EC50: 5 to 50 µM for the first, no more than 5 µM for the second.

`O=C(NC1(C(=O)Nc2ccc(-c3ccc(C(=O)O)o3)cc2)CCCC1)c1ccc2c(c1)nc(-c1ccoc1)n2C1CCCCC1` [compound 1080] and `Cc1nc(C(=O)O)sc1-c1ccc(NC(=O)C2(NC(=O)c3ccc4c(c3)nc(-c3ccoc3)n4C3CCCCC3)CCCC2)cc1` [compound 1091] cannot be ordered by EC50: no more than 5 µM for the first, no more than 5 µM for the second.

`Cn1cccc1-c1nc2cc(C(=O)NC3(C(=O)Nc4ccc(/C=C/C(=O)O)cc4)CCCC3)ccc2n1C1CCCCC1` [compound 2048] and `O=C(O)/C=C/c1ccc(NC(=O)C2(NC(=O)c3ccc4c(c3)nc(-c3ccco3)n4C3CCCCC3)CCCC2)cc1` [compound 2049] cannot be ordered by EC50: no more than 5 µM for the first, no more than 5 µM for the second.

`CC1CCCCC1n1c(-c2ccoc2)nc2cc(C(=O)NC3(C(=O)Nc4ccc(C=CC(=O)O)cc4)CCCC3)ccc21` (stereo not shown) [compound 2045] and `O=C(O)C=Cc1ccc(NC(=O)C2(NC(=O)c3ccc4c(c3)nc(-c3ccoc3)n4C3CC4CCC3C4)CCCC2)cc1` (mixture of isomers) [compound 2021] cannot be ordered by EC50: no more than 5 µM for the first, no more than 5 µM for the second.

`O=C(O)C=Cc1ccc(NC(=O)C2(NC(=O)c3ccc4c(c3)nc(-c3ccco3)n4C3CC4CCC3C4)CCCC2)cc1` (mixture of isomers) [compound 2017] and `CC(C)(C)OC(=O)N1CCC(NC(=O)c2ccc3c(c2)nc(-c2ccoc2)n3C2CCCCC2)(C(=O)Nc2ccc(/C=C/C(=O)O)cc2)CC1` [compound 1089] cannot be ordered by EC50: no more than 5 µM for the first, no more than 5 µM for the second.

Work on `CC(NC(=O)c1ccc2c(c1)nc(-c1ccoc1)n2C1CCCCC1)C(=O)Nc1cccc(-c2cccc(N)c2)c1` (stereo not shown) [compound 1022] yielded an EC50 of 5 to 50 µM.
